Assay in all cases: Bliss excess, mean over the matrix (fraction); higher = more synergy
The test system of test [1] is MFE-296 (Endometrial Carcinoma). Summed up:
(§1)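 Cell lines grown in DMEM/F12 or RPMI with 10% FBS were plated in 1536-well plates and held 24 hours at 37°C, 5% CO2 before 72 hours of exposure to two-drug dose matrices, with DMSO typically at 0.2%. CellTiter-Glo 2.0 luminescence gave viability, which was converted to inhibition. Vehicle wells were set to 0 and blank wells to 1. Combination Emax is the second-highest inhibition in the matrix, and Bliss excess is the observed combination effect minus the expected EA + EB − EA·EB, where EA and EB are the single-agent effects.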

Test [2] relates to KYSE-520 (Esophageal Squamous Cell Carcinoma). The essentials:
as §1

In test [3] the test system is HCC-78 (Lung Adenocarcinoma). The essentials: as §1
Test [4] concerns LU-135 (Small Cell Lung Carcinoma). Summed up: as §1
The test system of test [5] is LB831-BLC (Bladder Carcinoma). The essentials:
as §1

Test [6] has as its system CCRF-CEM (T-Lymphoblastic Leukemia). Summed up: as §1
The subject of test [7] is SK-ES-1 (Ewing's Sarcoma). Summed up: as §1
A further test deals with HOS (Osteosarcoma). The essentials:
as §1

Test [8] concerns SNU-5 (Gastric Carcinoma). Summed up:
as §1

The next test deals with T98G (Glioblastoma). The essentials:
as §1

Test [9] deals with EC-GI-10 (Esophageal Squamous Cell Carcinoma). The essentials: as §1
The test system of test [10] is B-CPAP (Thyroid Gland Carcinoma). The essentials:
as §1

For test [11], the system named is HCC1806 (Breast Carcinoma). The essentials: as §1
The subject of test [12] is RO82-W-1 (Thyroid Gland Carcinoma). Summed up: as §1
The subject of another test is ES4 (Ewing's Sarcoma). Summed up:
as §1

The test system of test [13] is CAL-148 (Breast Carcinoma). The essentials:
as §1

The test system of test [14] is NCI-H82 (Small Cell Lung Carcinoma). Summed up:
as §1

Test [15] concerns KP-1N (Pancreatic Carcinoma). Summed up: as §1
For test [16], the system named is Hs-578-T (Breast Carcinoma). The essentials:
as §1

The test system of test [17] is OVCA420 (Ovarian Carcinoma). Summed up:
as §1

Regarding `CN(C)CCCOc1ccc(-c2ccc3ncc4c(c3c2)n(C2CCOCC2)c(=O)n4C)cn1` [AZD0156] + C=CCn1c(=O)c2cnc(Nc3ccc(N4CCN(C)CC4)cc3)nc2n1-c1cccc(C(C)(C)O)n1 [AZD1775] (first compound max 1 µM, partner max 1 µM), the Bliss excess is -0.0553 in test [1]; -0.0232 in test [2]; 0.0011 in test [3]; 0.0024 in test [4]; -0.104 in test [5]; 0.0192 in test [6]. For the same molecule, the Bliss excess was 0.0045 in test [7]; -0.0196 in the test on HOS (Osteosarcoma); -0.0705 in test [8]; -0.0598 in the test on T98G (Glioblastoma); -0.0001 in test [9]; -0.0255 in test [10]. The Bliss excess in [11] is -0.0219; in test [12] it was -0.119; in the test with ES4 (Ewing's Sarcoma), 0.0122; in [13], -0.0318; in test [14], -0.0283; in test [15], -0.0207. Moreover, the Bliss excess was -0.0457 in test [16] and -0.0225 in test [17].

As for `CN(C)CCCOc1ccc(-c2ccc3ncc4c(c3c2)n(C2CCOCC2)c(=O)n4C)cn1` [AZD0156] + CCN(CCO)CCCOc1ccc2c(Nc3cc(CC(=O)Nc4cccc(F)c4)[nH]n3)ncnc2c1 [AZD2811] (first compound max 1 µM, 7x7, partner max 1 µM), the Bliss excess in [1] is -0.0356; in [2], 0.005; in test [3], -0.0058; in test [4], -0.0008; in test [5], -0.0356; in [6], 0.0045. Besides, the Bliss excess in test [7] was -0.0011; in the test on HOS (Osteosarcoma), -0.0186; in [8] it was 0.0036; in the test with T98G (Glioblastoma) it was -0.0655; in test [9], 0.0507; in [10] it was -0.0224. Besides, the Bliss excess in [11] is -0.003; in test [12], -0.0556; in the test on ES4 (Ewing's Sarcoma), 0.03; in [13], -0.0262; in test [14] it was 0.0315; in test [15], 0.0312. In addition, the Bliss excess was -0.0708 in test [16] and -0.0308 in [17].

Take `C=CCn1c(=O)c2cnc(Nc3ccc(N4CCN(C)CC4)cc3)nc2n1-c1cccc(C(C)(C)O)n1` [AZD1775] + C[C@@H]1COCCN1C2=NC(=NC(=C2)C3(CC3)[S@](=N)(=O)C)C4=C5C=CNC5=NC=C4 [AZD6738] (first compound max 1 µM, partner max 10 µM): the Bliss excess in test [1] is 0.0428; in [2], -0.003; in [3], 0.0101; in [4], -0.0044; in [5], 0.0042; in test [6], 0.0391. Moreover, the Bliss excess in test [7] is 0.0071; in the test on HOS (Osteosarcoma), 0.106; in the test on T98G (Glioblastoma), -0.0178; in [9] it was 0.0535; in test [10], 0.0499; in [11], 0.0166. Also, the Bliss excess is -0.0916 in test [12]; 0.0417 in the test on ES4 (Ewing's Sarcoma); -0.034 in test [13]; 0.0055 in [15]; -0.0127 in [16]; 0.0441 in test [17].

In the case of `COc1nnc2ccc(N3CCC(c4ccc(OCCN5CCN(C)C(=O)[C@H]5C)cc4)CC3)nn12` [AZD5153] + CN(CC[C@H](CSC1=CC=CC=C1)NC2=C(C=C(C=C2)S(=O)(=O)NC(=O)C3=CC=C(C=C3)N4CCC(CC4)[C@H](C5=CC=CC=C5C6=CC=C(C=C6)Cl)O)S(=O)(=O)C(F)(F)F)CCO [AZD4320] (first compound max 1 µM, 7x7, partner max 1 µM), the Bliss excess in [1] was 0.0104; in test [2], 0.023; in test [4], 0.0221; in test [7], 0.0211; in [8] it was 0.0566; in test [9], -0.0052. The Bliss excess in test [10] is 0.0375; in test [11] it was 0.0257; with ES4 (Ewing's Sarcoma) it was -0.0136; in [15], -0.0004; in test [17], -0.0203.

In the case of `CS(=O)(=O)CCNCc1ccc(-c2ccc3ncnc(Nc4ccc(OCc5cccc(F)c5)c(Cl)c4)c3c2)o1` [Lapatinib] + NC1(c2ccc(-c3nc4ccn5c(=O)[nH]nc5c4cc3-c3ccccc3)cc2)CCC1 [MK-2206] (first compound max 10 µM, 7x7, partner max 10 µM), the Bliss excess was -0.026 in [1]; -0.0464 in test [3]; -0.0044 in [5]; 0.026 in [6]; -0.0218 with HOS (Osteosarcoma); 0.0404 in [8]. The Bliss excess in the test on T98G (Glioblastoma) was 0.0128; in test [10], 0.0102; in [11], 0.0574; in test [12], -0.0165; in test [13] it was 0.0253; in test [14] it was -0.0176. Besides, the figures for the Bliss excess in test [16] and in [17] were 0.0381 and 0.0085, respectively.

On to `CCc1c2c(nc3ccc(O)cc13)-c1cc3c(c(=O)n1C2)COC(=O)[C@]3(O)CC` [SN-38] + O=C(c1cc(Cc2n[nH]c(=O)c3ccccc23)ccc1F)N1CCN(C(=O)C2CC2)CC1 [Olaparib] (first compound max 0.3 µM, 7x7, partner max 10 µM), for which the Bliss excess stood at 0.0741 in test [1]; 0.0106 in test [3]; 0.0545 in test [4]; 0.0617 in test [5]; 0.0463 in [6]; 0.0611 in [7]. The Bliss excess in the test with HOS (Osteosarcoma) was 0.0819; in the test with T98G (Glioblastoma), 0.107; in test [10], 0.0148; in test [11], 0.0498; in test [12], -0.0448; in the test on ES4 (Ewing's Sarcoma), -0.0648. The Bliss excess is 0.0981 in test [13], -0.0065 in test [14], 0.0647 in test [15] and 0.0807 in test [16].

Regarding `C[C@@H](c1ccc2nccn2c1)n1nnc2ncc(-c3cnn(C)c3)nc21` [Savolitinib] + CN(CC[C@H](CSC1=CC=CC=C1)NC2=C(C=C(C=C2)S(=O)(=O)NC(=O)C3=CC=C(C=C3)N4CCC(CC4)[C@H](C5=CC=CC=C5C6=CC=C(C=C6)Cl)O)S(=O)(=O)C(F)(F)F)CCO [AZD4320] (first compound max 1 µM, 7x7, partner max 1 µM), the Bliss excess in [1] was -0.0181; in test [2], -0.0298; in test [4] it was 0.0057; in [7], -0.0692; in test [8], 0.029; in test [9], 0.0005. Besides, the Bliss excess is 0.0041 in test [10]; -0.0031 in test [11]; -0.0622 in the test with ES4 (Ewing's Sarcoma); -0.0755 in test [15]; -0.0691 in test [17].

Values taken from the supplement of paper PMC11061612.
